Laboratory results reported in patent publication US8318668B2 (Trustees of Tufts College, priority 2005, dated 2012).
One block for each compound: values may come before it. Square brackets hold non-standard residues; d marks the D form. Ends that are not written are not given here. Peptide text beside a SMILES is read from it. Tle = CC(C)(C)[C@H](N)C(=O)O

Key:
db mice [1] = assay: Time course of blood glucose lowering in db mice; conditions: 8 μg injected; for duration of action (in words): db / diabetic mice
Experimental: At each time point the percent change in blood glucose was determined for 10 mice and the average change±SEM is plotted.
At each time point, the percentage change in blood glucose was determined for 10 mice and the average change±SEM is plotted.
In an exemplary embodiment, for treatment of the mice with a regimen including a peptide hormone analog or control, sub-orbital sinus blood samples are taken before and at some time (e.g., 60 minutes) after dosing of each animal. Blood glucose measurements can be made by any of several conventional techniques, such as using a glucose meter. The blood glucose levels of the control and peptide hormone analog dosed animals are compared

db mice [2] = assay: Dose response of blood glucose lowering in diabetic (db) mice; format: in vivo; conditions: blood glucose 60 minutes post injection
Source text: The data were fit to a sigmoidal dose response curve.

human GLP-1 receptor = human GLP-1 receptor (Homo sapiens, UniProt P43220); conditions: peptide concentration 300 nM
Chain of human GLP-1 receptor (P43220 24-463): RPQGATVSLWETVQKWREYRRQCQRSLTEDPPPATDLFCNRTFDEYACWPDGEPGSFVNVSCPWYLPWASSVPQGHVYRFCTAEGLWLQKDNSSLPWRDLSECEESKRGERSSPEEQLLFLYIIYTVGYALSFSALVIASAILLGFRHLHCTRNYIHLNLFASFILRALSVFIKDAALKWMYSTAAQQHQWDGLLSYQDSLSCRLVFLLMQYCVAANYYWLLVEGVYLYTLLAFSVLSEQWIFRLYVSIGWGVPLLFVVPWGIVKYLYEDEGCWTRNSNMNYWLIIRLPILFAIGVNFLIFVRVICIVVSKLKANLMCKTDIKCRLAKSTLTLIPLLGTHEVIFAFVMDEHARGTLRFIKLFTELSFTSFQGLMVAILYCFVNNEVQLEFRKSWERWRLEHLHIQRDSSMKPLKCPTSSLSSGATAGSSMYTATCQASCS
Experimental: Peptides were tested for agonist activity at a concentration of 300 nM. The data represent the mean±SEM with n=4.
Data values∓SEM are plotted and fit to a sigmoidal dose-response curve.

rat DPP IV = rat DPP IV (Rattus norvegicus, UniProt P14740); assay: Digestion of model hexapeptides by rat DPP IV (LCMS); conditions: for half-life: pH 8
Chain of rat DPP IV (P14740 whole entry): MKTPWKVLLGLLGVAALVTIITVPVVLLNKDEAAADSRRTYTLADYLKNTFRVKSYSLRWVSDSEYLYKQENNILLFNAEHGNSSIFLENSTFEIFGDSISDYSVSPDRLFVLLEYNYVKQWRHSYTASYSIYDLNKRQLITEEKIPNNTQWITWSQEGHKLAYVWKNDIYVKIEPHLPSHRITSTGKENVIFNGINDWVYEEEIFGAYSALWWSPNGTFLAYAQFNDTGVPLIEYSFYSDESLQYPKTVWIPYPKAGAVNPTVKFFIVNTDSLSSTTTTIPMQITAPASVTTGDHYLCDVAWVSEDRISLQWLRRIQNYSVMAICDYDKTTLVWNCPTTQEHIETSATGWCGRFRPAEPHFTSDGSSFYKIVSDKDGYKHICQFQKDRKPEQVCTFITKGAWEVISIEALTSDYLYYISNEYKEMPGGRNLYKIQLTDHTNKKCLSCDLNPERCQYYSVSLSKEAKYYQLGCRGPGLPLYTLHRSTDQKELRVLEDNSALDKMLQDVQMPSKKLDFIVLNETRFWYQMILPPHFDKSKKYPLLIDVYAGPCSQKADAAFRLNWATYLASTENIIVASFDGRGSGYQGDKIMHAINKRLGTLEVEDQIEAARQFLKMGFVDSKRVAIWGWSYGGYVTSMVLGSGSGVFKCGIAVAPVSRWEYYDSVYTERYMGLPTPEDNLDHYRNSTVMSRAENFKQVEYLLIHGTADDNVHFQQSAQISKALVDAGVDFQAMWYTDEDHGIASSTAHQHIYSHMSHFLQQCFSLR
Source text: The data were fit to a single phase exponential equation.
DPP-IV cleaves the N-terminal dipeptide from peptides with either Pro or Ala in the penultimate position (P2).

Compound: HAXGTFTSDVSSYLEGQAAKEFIAWLVKGRZ-NH2 (HAXGTFTSDVSSYLEGQAAKEFIAWLVKGRX; β-dimethyl Asp, biphenylalanine, C-terminal amide) [DGS69]
duration of action (in words) (db mice [1]): significantly increased the duration

95% confidence interval of EC50 of glucose lowering effect (db mice [2]): 0.1 to 1.92 µg
EC50 of glucose lowering effect (db mice [2]): 0.4 µg
amount of GLP-1 receptor activation as measured by cAMP production (human GLP-1 receptor): the same
Compound: CC[C@H](C)[C@H](NC(=O)[C@H](Cc1ccccc1)NC(=O)[C@H](CCC(=O)O)NC(=O)[C@H](CCCCN)NC(=O)[C@H](C)NC(=O)[C@H](C)NC(=O)[C@H](CCC(N)=O)NC(=O)CNC(=O)[C@H](CCC(=O)O)NC(=O)[C@H](CC(C)C)NC(=O)[C@H](Cc1ccc(O)cc1)NC(=O)[C@H](CO)NC(=O)[C@H](CO)NC(=O)[C@@H](NC(=O)[C@H](CC(=O)O)NC(=O)[C@H](CO)NC(=O)[C@@H](NC(=O)[C@H](Cc1ccccc1)NC(=O)[C@@H](NC(=O)CNC(=O)[C@@H](NC(=O)[C@H](C)NC(=O)[C@@H](N)Cc1c[nH]cn1)C(C)(C)C(=O)O)[C@@H](C)O)[C@@H](C)O)C(C)C)C(=O)N[C@@H](C)C(=O)N[C@@H](Cc1c[nH]c2ccccc12)C(=O)N[C@@H](CC(C)C)C(=O)N[C@H](C(=O)N[C@@H](CCCCN)C(=O)NCC(=O)N[C@@H](CCCNC(=N)N)C(N)=O)C(C)C [TPA1B4, HAXGTFTSDVSSYLEGQAAKEFIAWLVKGR-NH2]
blood glucose level reached (in words) (db mice [1]; db mice): within the range observed for normal mice
duration of blood glucose lowering effect (db mice [1]; db mice): at least 90 minutes
time of return of blood glucose to hyperglycemic values (db mice [1]; db mice): ≤ 4 h

cleavage by rat DPP IV (in words) (rat DPP IV): No reaction was observed
Compound: C[C@H](N)C(=O)N1CCC[C@H]1C(=O)N[C@H](C(=O)N[C@@H](CO)C(=O)N[C@@H](Cc1c[nH]c2ccccc12)C(=O)N[C@@H](CO)C(N)=O)C(C)(C)C [Ala-Pro-Tle-Ser-Trp-Ser-NH2] (H-AP[Tle]SWS-NH2)

half-life (rat DPP IV): 41 min
Compound: APISWS-NH2 [Ala-Pro-Ile-Ser-Trp-Ser-NH2]

Compound: CC[C@H](C)[C@H](NC(=O)[C@H](Cc1ccccc1)NC(=O)[C@H](CCC(=O)O)NC(=O)[C@H](CCCCN)NC(=O)[C@H](C)NC(=O)[C@H](C)NC(=O)[C@H](CCC(N)=O)NC(=O)CNC(=O)[C@H](CCC(=O)O)NC(=O)[C@H](CC(C)C)NC(=O)[C@H](Cc1ccc(O)cc1)NC(=O)[C@H](CO)NC(=O)[C@H](CO)NC(=O)[C@@H](NC(=O)[C@H](CC(=O)O)NC(=O)[C@H](CO)NC(=O)[C@@H](NC(=O)[C@H](Cc1ccccc1)NC(=O)[C@@H](NC(=O)CNC(=O)[C@H](CCC(=O)O)NC(=O)[C@H](C)NC(=O)[C@@H](N)Cc1c[nH]cn1)[C@@H](C)O)[C@@H](C)O)C(C)C)C(=O)N[C@@H](C)C(=O)N[C@@H](Cc1c[nH]c2ccccc12)C(=O)N[C@@H](CC(C)C)C(=O)N[C@H](C(=O)N[C@@H](CCCCN)C(=O)NCC(=O)N[C@@H](CCCNC(=N)N)C(N)=O)C(C)C [GLP-1, reference compound]
duration of action (in words) (db mice [1]): largely gone by 60 minutes

Compound: APLSWS-NH2 [Ala-Pro-Leu-Ser-Trp-Ser-NH2]
half-life (rat DPP IV): 49 min
